Test [1] deals with Bacillus anthracis ATCC 14578. Type of test: cell-based. The note with it: for MIC: unit assumed.
The test system of test [2] is Bacillus anthracis. As to conditions: in vivo; cited from earlier work.
Test [3] has as its system Bacillus thuringiensis. As to conditions: cited from earlier work.
For the next test, the system named is Bacillus cereus. Type of test: cell-based.
The subject of test [4] is Bacillus thuringiensis. In kind it is cell-based.
The test system of test [5] is Bacillus anthracis. As to conditions: cited from earlier work.

Results on eleven compounds are retold here after US20040186089A1 (priority 2001, published 2004).

Values after ≈ are worked out from the molar mass of the structure shown. Values joined by “and” are separate entries in the source; they are usually repeats but may differ in a detail not shown here. Equal values may be shown once.

`CO[C@@]1(NC(=O)Cc2cccs2)C(=O)N2C(C(=O)O)=C(COC(N)=O)CS[C@@H]21` [Cefoxitin] yielded an MIC in test [1] of 6 µg/mL (≈ 14 µM).

On to `O=C(O)c1cn(C2CC2)c2cc(N3CCNCC3)c(F)cc2c1=O` [Ciprofloxacin], for which the MIC in test [1] amounted to 0.064 µg/mL (≈ 0.193 µM). Moreover, in the test with Bacillus anthracis [2], the response of people entry is “responded well”. Moreover, the “resistance of Bacillus thuringiensis” value with Bacillus thuringiensis [3] is “not resistant”.

In the case of `C[C@@H](O)[C@H]1C(=O)N2C(C(=O)O)=C(S[C@@H]3CN[C@H](C(=O)Nc4cccc(C(=O)O)c4)C3)[C@H](C)[C@H]12` [Ertapenem, (1R,5S,6S,8R,2′S,4′S)-2-(2-(3-carboxyphenylcarbamoyl)pyrrolidin-4-ylthio)-6-(1-hydroxyethyl)-1-methylcarbapenem-3-carboxylic acid], in test [1], the “susceptibility of Bacillus anthracis” value is given as “susceptible” and the minimum inhibitory concentration (MIC) came to 0.032 µg/mL (≈ 0.0673 µM).

As to `C[C@@H](O)[C@H]1C(=O)N2C(C(=O)O)=C(SCCN=CN)C[C@H]12` [Imipenem, [5R-[5α,6α(R*)]]-6-(1-hydroxyethyl)-3-[[2-[(iminomethyl)amino]ethyl]thio]-7-oxo-1-azabicyclo[3.2.0]hept-2-ene-2-carboxylic acid monohydrate], in test [1], it took 0.047 µg/mL to inhibit growth (MIC).

For the compound `CCn1cc(C(=O)O)c(=O)c2cc(F)c(N3CCNCC3)cc21` [Norfloxacin], the “Disk Diffusion zone” value is 22 mm and 23 mm and 21 mm and 25 mm in the test on Bacillus cereus; 27 mm and 24 mm in the test with Bacillus thuringiensis [4].

In test [1], `CN(C)[C@@H]1C(O)=C(C(N)=O)C(=O)[C@@]2(O)C(O)=C3C(=O)c4c(O)cccc4[C@@](C)(O)[C@H]3C[C@@H]12` [Tetracycline] had an MIC of 0.064 µg/mL (≈ 0.144 µM).

Consider `CC1(C)S[C@@H]2[C@H](NC(=O)[C@H](N)c3ccccc3)C(=O)N2[C@H]1C(=O)O` [ampicillin], for which the “resistance of Bacillus thuringiensis” value in the test on Bacillus thuringiensis [3] is given as “resistant”.

On to `O=C(N[C@H](CO)[C@H](O)c1ccc([N+](=O)[O-])cc1)C(Cl)Cl` [chloramphenicol], for which the “susceptibility of Bacillus anthracis” value with Bacillus anthracis [5] was “susceptible”.

With `CC[C@H]1OC(=O)[C@H](C)[C@@H](O[C@H]2C[C@@](C)(OC)[C@@H](O)[C@H](C)O2)[C@H](C)[C@@H](O[C@@H]2O[C@H](C)C[C@H](N(C)C)[C@H]2O)[C@](C)(O)C[C@@H](C)C(=O)[C@H](C)[C@@H](O)[C@]1(C)O` [erythromycin], in the test with Bacillus anthracis [5], the “susceptibility of Bacillus anthracis” value is recorded as “susceptible”.

As to Penicillin, the MIC in test [1] came out at 0.047 µg/mL. In the test on Bacillus anthracis [5], the “susceptibility of Bacillus anthracis” value is listed as “susceptible”. Also, in the test with Bacillus thuringiensis [3], the “resistance of Bacillus thuringiensis” value is “resistant”.

On to gentamicin, for which the “susceptibility of Bacillus anthracis” value with Bacillus anthracis [5] is given as “susceptible”.

The term MIC denotes the lowest concentration that inhibits growth of the organism.
